Data as given in patent US9663511B2, “Sphingosine 1-phosphate receptor antagonists” (ARROYO BIOSCIENCES, LLC, priority 2012, dated 2017).
Values joined by “and” are separate entries in the source; they are usually repeats but may differ in a detail not shown here. Identical values can stand only once. Like-named read-outs stand apart in the source and are kept apart here. Marks after values point to notes of the source that are not given here.

Experiments:
S1P2 receptor = S1P2 receptor (Homo sapiens (Human), UniProt O95136); assay: Antagonist assay (FLIPR TETRA, inhibition of reference agonist EC80) on S1P2; assay type: cell-based; conditions: tested as the citrate salt
S1P2 receptor, sequence (O95136 whole entry): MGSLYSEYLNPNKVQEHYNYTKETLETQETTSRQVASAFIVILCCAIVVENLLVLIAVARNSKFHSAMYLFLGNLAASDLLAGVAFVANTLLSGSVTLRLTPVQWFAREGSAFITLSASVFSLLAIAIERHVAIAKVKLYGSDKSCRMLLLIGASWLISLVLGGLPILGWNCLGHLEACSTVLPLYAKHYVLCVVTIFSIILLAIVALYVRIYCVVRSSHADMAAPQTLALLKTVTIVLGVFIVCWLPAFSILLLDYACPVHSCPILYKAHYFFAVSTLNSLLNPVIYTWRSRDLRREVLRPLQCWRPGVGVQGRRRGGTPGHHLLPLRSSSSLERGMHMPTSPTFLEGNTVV
Description: (§1) Antagonist percentage inhibition determinations were obtained by assaying sample compounds and referencing the control (EC80) wells for each profiled (GPCR) which evaluated binding to S1P2 and S1P5 receptors. The samples were run using a single addition assay protocol. The protocol design is as follows.
(§2) Unless specified otherwise, the sample compounds were diluted in 100% anhydrous DMSO including all dilutions. The compounds were tested as the citrate salt (1 equivalent per molecule). If the sample compound is provided in a different solvent all master stock dilutions are performed in the specified solvent. All control wells contained identical solvent final concentrations as the sample compound wells.
(§3) The sample compounds were transferred from a master stock solution into a daughter plate that was used in the assay. Each sample compound was diluted into an assay buffer (1×HBSS with 20 mM HEPES, 2.5 mM Probenecid, and 0.4% Free Fatty Acid BSA) at an appropriate concentration to obtain final specified concentrations.
(§4) Using the EC80 values that were determined real-time, stimulated all pre-incubated sample compounds and reference antagonists (if applicable) were compared with the EC80 values of reference agonist. These were read for 180 seconds using the FLIPR^TETRA (This assay added reference agonist to respective wells-then fluorescences measurements were collected to calculate IC50 values). All plates were subjected to appropriate baseline corrections. Once baseline corrections were processed, maximum fluorescence values were exported and data manipulated to calculate percentage activation, percentage inhibition and Z′.

S1P5 receptor = S1P5 receptor (Homo sapiens (Human), UniProt Q9H228); assay: Antagonist assay (FLIPR TETRA, inhibition of reference agonist EC80) on S1P5; assay type: cell-based; conditions: tested as the citrate salt
S1P5 receptor, sequence (Q9H228 whole entry): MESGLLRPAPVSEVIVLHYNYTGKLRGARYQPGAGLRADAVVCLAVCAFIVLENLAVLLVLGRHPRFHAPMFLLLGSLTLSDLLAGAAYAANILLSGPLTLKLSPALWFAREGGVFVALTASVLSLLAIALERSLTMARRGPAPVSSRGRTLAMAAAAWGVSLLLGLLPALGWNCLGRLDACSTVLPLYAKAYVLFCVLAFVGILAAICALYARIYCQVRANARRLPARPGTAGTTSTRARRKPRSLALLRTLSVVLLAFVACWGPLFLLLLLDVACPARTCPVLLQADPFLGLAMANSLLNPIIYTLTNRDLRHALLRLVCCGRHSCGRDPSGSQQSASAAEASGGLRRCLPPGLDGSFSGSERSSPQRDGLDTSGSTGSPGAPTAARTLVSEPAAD
Description: as §1, §2, §3, §4

[1] = Blood concentrations and pharmacokinetics after 1 mg/kg i.v. in mice; assay type: in vivo, mouse
Description: 1 mg/kg of the compound was injected by IV and blood was withdrawn at the times in table 1. The amount of starting compound was quantified by a standard curve using MS/MS determinations.

[2] = In vitro plasma protein binding; assay type: in vitro ADME, mouse
[3] = Microsomal intrinsic clearance; conditions: mouse, microsomes, mouse microsomes, test conc. 1 μM
in vitro = conditions: mouse, microsomes, NADPH-dependent Clint (microsomal intrinsic clearance)

Cc1nn(C)c2nc(NNC(=O)Nc3cc(Cl)nc(Cl)c3)cc(C(C)C)c12 [JTE013, N-(1H-4-isopropyl-1,3-dimethylpyrazolo[3,4-b]pyridine-6-yl)amino-N′-(2,6-dichloropyridine-4-yl) urea]
IC50 (S1P2 receptor): 11 nM | IC50 (S1P5 receptor): 1.3 nM | AUC0-inf ([1]; mouse blood, individual mice): 88.2 ng·h/mL and 122 ng·h/mL | AUC0-inf Extrapolated ([1]; mouse blood, individual mice): 6.50% and 2.89% and 12.1% | AUC0-tlast ([1]; mouse blood, individual mice): 85.6 ng·h/mL and 108 ng·h/mL | AUMC0-inf ([1]; mouse blood, individual mice): 153 h^2*ng/mL and 71.2 h^2*ng/mL and 652 h^2*ng/mL | AUMC0-inf Extrapolated ([1]; mouse blood, individual mice): 68.6% and 39.9% and 88.0% | AUMC0-tlast ([1]; mouse blood, individual mice): 48.1 h^2*ng/mL and 42.8 h^2*ng/mL and 78.0 h^2*ng/mL | C0 ([1]; mouse blood, individual mice): 397 ng/mL and 536 ng/mL | CL ([1]; mouse blood, individual mice): 11.3 L/h/kg and 8.18 L/h/kg | MRT0-inf ([1]; mouse blood, individual mice): 1.40 h and 0.807 h and 5.33 h | MRT0-tlast ([1]; mouse blood, individual mice): 30 min and 43.5 min | Terminal half-life ([1]; mouse blood, individual mice): 6.11 h and 3.56 h and 18.7 h | Vss ([1]; mouse blood, individual mice): 12.8 L/kg and 9.16 L/kg and 43.6 L/kg | AUC0-inf Extrapolated, Mean S.D. ([1]; mouse blood, mean): 7.15 ± 4.61% | AUMC0-inf Extrapolated, Mean S.D. ([1]; mouse blood, mean): 65.5 ± 24.2% | AUMC0-inf, Mean S.D. ([1]; mouse blood, mean): 292 ± 314 h^2*ng/mL | AUMC0-tlast, Mean S.D. ([1]; mouse blood, mean): 56.3 ± 19.0 h^2*ng/mL | C0, Mean S.D. ([1]; mouse blood, mean): 462 ± 70.1 ng/mL | Blood Concentrations ([1]; mouse, 5 min, individual mice, LLOQ = 1 ng/mL): 231 ng/mL and 302 ng/mL | Blood Concentrations ([1]; mouse, 0.25 h, individual mice, LLOQ = 1 ng/mL): 78.3 ng/mL and 95.8 ng/mL | Blood Concentrations ([1]; mouse, 0.5 h, individual mice, LLOQ = 1 ng/mL): 33.8 ng/mL and 40.4 ng/mL | Blood Concentrations ([1]; mouse, 1 h, individual mice, LLOQ = 1 ng/mL): 14.4 ng/mL and 13.4 ng/mL | Blood Concentrations ([1]; mouse, 2 h, individual mice, LLOQ = 1 ng/mL): 3.16 ng/mL and 3.12 ng/mL | Blood Concentrations ([1]; mouse, 4 h, individual mice, LLOQ = 1 ng/mL): 0.732^c ng/mL and 0.771^c ng/mL | Blood Concentrations ([1]; mouse, 6 h, individual mice, LLOQ = 1 ng/mL): 0.496^c ng/mL and 0.643^c ng/mL | Blood Concentrations ([1]; mouse, 12 h, individual mice, LLOQ = 1 ng/mL): BLQ | pharmacokinetics / blood levels following intravenous injection in mice (in words) ([1]; mouse, comparison between compounds): better than compound 2 | AUC0-inf ([1]; mouse, in vivo, iv, 1 mg/kg, mouse blood, individual mice, read-out: AUC0-inf): 109 ng·h/mL | AUC(0-t) ([1]; mouse, in vivo, iv, 1 mg/kg, mouse blood, individual mice, read-out: AUC0-tlast): 102 ng·h/mL | C0 ([1]; mouse, in vivo, iv, 1 mg/kg, mouse blood, individual mice, read-out: C0): 453 ng/mL | clearance ([1]; mouse, in vivo, iv, 1 mg/kg, mouse blood, individual mice, read-out: CL (converted)): 153 mL/min/kg | MRT last ([1]; mouse, in vivo, iv, 1 mg/kg, mouse blood, individual mice, read-out: MRT0-tlast): 28.3 min | AUC0-inf ([1]; mouse, in vivo, iv, 1 mg/kg, mouse blood, mean, read-out: AUC0-inf, Mean S.D.): 107 ± 17.2 ng·h/mL | AUC(0-t) ([1]; mouse, in vivo, iv, 1 mg/kg, mouse blood, mean, read-out: AUC0-tlast, Mean S.D.): 98.4 ± 11.4 ng·h/mL | clearance ([1]; mouse, in vivo, iv, 1 mg/kg, mouse blood, mean, read-out: CL, Mean S.D. (converted)): 159 mL/min/kg | MRT inf ([1]; mouse, in vivo, iv, 1 mg/kg, mouse blood, mean, read-out: MRT0-inf, Mean S.D.): 2.51 ± 2.46 h | MRT last ([1]; mouse, in vivo, iv, 1 mg/kg, mouse blood, mean, read-out: MRT0-tlast, Mean S.D.): 33.9 ± 8.34 min | half-life ([1]; mouse, in vivo, iv, 1 mg/kg, mouse blood, mean, read-out: Terminal half-life, Mean S.D. (converted)): 567 ± 485 min | Vd ([1]; mouse, in vivo, iv, 1 mg/kg, mouse blood, mean, read-out: Vss, Mean S.D.): 21.9 ± 18.9 L/kg | concentration at 5 min ([1]; mouse, in vivo, iv, 1 mg/kg, mouse, 5 min, individual mice, LLOQ = 1 ng/mL, read-out: Blood Concentrations): 282 ng/mL | concentration at 5 min ([1]; mouse, in vivo, iv, 1 mg/kg, mouse, 5 min, mean of 3 mice, read-out: Blood Concentrations, Mean S.D.): 272 ± 36.6 ng/mL | concentration at 0.25 h ([1]; mouse, in vivo, iv, 1 mg/kg, mouse, 0.25 h, individual mice, LLOQ = 1 ng/mL, read-out: Blood Concentrations): 109 ng/mL | concentration at 0.25 h ([1]; mouse, in vivo, iv, 1 mg/kg, mouse, 0.25 h, mean of 3 mice, read-out: Blood Concentrations, Mean S.D.): 94.4 ± 15.4 ng/mL | concentration at 0.5 h ([1]; mouse, in vivo, iv, 1 mg/kg, mouse, 0.5 h, individual mice, LLOQ = 1 ng/mL, read-out: Blood Concentrations): 44.4 ng/mL | concentration at 0.5 h ([1]; mouse, in vivo, iv, 1 mg/kg, mouse, 0.5 h, mean of 3 mice, read-out: Blood Concentrations, Mean S.D.): 39.5 ± 5.35 ng/mL | concentration at 1 h ([1]; mouse, in vivo, iv, 1 mg/kg, mouse, 1 h, individual mice, LLOQ = 1 ng/mL, read-out: Blood Concentrations): 11.8 ng/mL | concentration at 1 h ([1]; mouse, in vivo, iv, 1 mg/kg, mouse, 1 h, mean of 3 mice, read-out: Blood Concentrations, Mean S.D.): 13.2 ± 1.31 ng/mL | concentration at 2 h ([1]; mouse, in vivo, iv, 1 mg/kg, mouse, 2 h, individual mice, LLOQ = 1 ng/mL, read-out: Blood Concentrations): 2.72 ng/mL | concentration at 2 h ([1]; mouse, in vivo, iv, 1 mg/kg, mouse, 2 h, mean of 3 mice, read-out: Blood Concentrations, Mean S.D.): 3 ± 0.243 ng/mL | concentration at 4 h ([1]; mouse, in vivo, iv, 1 mg/kg, mouse, 4 h, individual mice, LLOQ = 1 ng/mL, read-out: Blood Concentrations): 1.01 ng/mL | concentration at 4 h ([1]; mouse, in vivo, iv, 1 mg/kg, mouse, 4 h, mean (n = 2 for Cmpd-1), read-out: Blood Concentrations, Mean S.D.): 0.838 ± 0.151 ng/mL | concentration at 6 h ([1]; mouse, in vivo, iv, 1 mg/kg, mouse, 6 h, individual mice, LLOQ = 1 ng/mL, read-out: Blood Concentrations): 0.805 ng/mL | concentration at 6 h ([1]; mouse, in vivo, iv, 1 mg/kg, mouse, 6 h, mean (n = 2 for Cmpd-1), read-out: Blood Concentrations, Mean S.D.): 0.648 ± 0.155 ng/mL | concentration at 12 h ([1]; mouse, in vivo, iv, 1 mg/kg, mouse, 12 h, individual mice, LLOQ = 1 ng/mL, read-out: Blood Concentrations): 0.547 ng/mL | mean fraction bound (%) ([2]; mouse plasma, test concentration 5 nM): 99.7% | microsomal CLint at 1 μM ([3]; NADPH-dependent Clint (microsomal intrinsic clearance)): 770 µL/min/mg | half-life at 1 μM ([3]; NADPH-dependent T1/2 (half-life)): 3 min | microsomal CLint at 1 μM ([3]; NADPH-free Clint (microsomal intrinsic clearance)): 22 µL/min/mg | half-life at 1 μM ([3]; NADPH-free T1/2 (half-life)): 105 min

CC(=O)CC(c1ccccc1)c1c(O)c2ccccc2oc1=O (centres unmarked) [Warfarin, reference compound]
mean fraction bound (%) ([2]; mouse, 5 nM): 92.1% | microsomal CLint at 1 μM (in vitro): 15 µL/min/mg
